How the values were obtained:
[1] = tested on: neonatal rat ventricular cardiomyocytes (NVCM); experiment: Inherent toxicity (LDH release) in NVCM; type: cell-based; parameters: key to LDH release (inherent toxicity), mean of independent replicates: % of total LDH activity; details: NVCM; for LTC = lowest toxic concentration: compound alone, n=4; for LDH release (inherent toxicity), mean of independent replicates: Suppl.Fig.4
Protocol: (§1) The protective effects of the BNS-22 and newly prepared compounds were evaluated using primary cultures of neonatal rat cardiomyocytes isolated in house as previously described. Hearts isolated from 1- to 3-day-old Wistar rats were minced in buffer (1.2 mM MgSO4 · 7H2O, 116 mM NaCl, 5.3 mM KCl, 1.13 mM NaH2PO4 · H2O, 20 mM 4-(2-hydroxyethyl)-1-piperazine ethanesulfonic acid (HEPES), glucose 1 mg/mL) on ice, then serially digested (20 min, six repetitions) at 37 °C with collagenase type II (60 U/mL, Gibco). After 2 h pre-plating in a 150 mm Petri dish per approximately 20 hearts to minimize non-myocyte contamination, cells were plated in 24-well gelatin-coated plates at a density of 400,000 cells per well. Cells were cultured at 37 °C and 5% CO2 in Dulbecco’s modified Eagle medium (DMEM)/ F12 culture medium supplemented with 10% horse serum, 5% fetal bovine serum (FBS), 20 mM sodium pyruvate, 50 U/mL penicillin, and 50 μg/mL streptomycin. Freshly isolated cells were left for 40 h to attach and form a culture of spontaneously beating cardiomyocytes, then the medium was changed to DMEM/F12 medium supplemented with 5% fetal bovine serum, 20 mM sodium pyruvate, 50 U/mL penicillin, and 50 μg/mL streptomycin. For the experiments, the medium was changed to serum- and pyruvate-free DMEM/F12 with 50 U/mL penicillin and 50 μg/mL streptomycin. Cardiomyocytes were pretreated with BNS-22 or new compounds for 3 h and then coincubated with DAU (1.2 µM) for another 3 h. After the DAU treatment period, the culture medium was exchanged for the drug-free DMEM/F12 with 50 U/mL penicillin and 50 μg/mL streptomycin for the 48 h follow-up. Experiments to determine the inherent toxicity of each compound studied follow the same schedule, only no DAU was added. Subsequently, the culture medium sample was taken from each well for evaluation of lactate dehydrogenase (LDH) activity. The total LDH activity of each sample for normalization was measured after 1 h of incubation at 37 °C in lysis buffer (0.1 M potassium phosphate, 1% Triton X-100, 1 mM dithiothreitol (DTT), 2 mM EDTA, pH 7.8, 15 min in RT). All samples were immediately analyzed in Tris HCl buffer (pH 8.9) containing 35 mM lactic acid and 5 mM NAD^+. The rate of NAD^+ reduction was monitored spectrophotometrically at 340 nm for 2 min. The slope of the linear region was calculated, and the results were expressed as a percentage of the total LDH. Each presented data point was obtained from distinct sample.

[2] = tested on: neonatal rat ventricular cardiomyocytes (NVCM); experiment: Protection against DAU-induced cytotoxicity (LDH release) in NVCM; type: cell-based; parameters: key to Suppl.Fig.3 DAU-induced cytotoxicity (LDH release) in NVCM, mean of independent replicates / LDH release (DAU-induced cytotoxicity), mean of independent replicates: % of total LDH activity; details: for minimal effective concentration: Rattus norvegicus, Cardiomyocyte, NVCM, protection against DAU 1.2 µM, n=4, read-out: LEC = lowest effective concentration
Protocol: as §1

Row | Structure (SMILES) | LTC = lowest toxic concentration [1] [µM] | LDH release (inherent toxicity), mean of independent replicates ([1]; compound alone 0.1 µM) | LDH release (inherent toxicity), mean of independent replicates ([1]; compound alone 1 µM) | LDH release (inherent toxicity), mean of independent replicates ([1]; compound alone 10 µM) | LDH release (inherent toxicity), mean of independent replicates ([1]; compound alone 30 µM) | LDH release (inherent toxicity), mean of independent replicates ([1]; compound alone 100 µM) | minimal effective concentration [2] [µM] | Suppl.Fig.3 DAU-induced cytotoxicity (LDH release) in NVCM, mean of independent replicates ([2]; compound 0.1 µM + DAU 1.2 µM) | Suppl.Fig.3 DAU-induced cytotoxicity (LDH release) in NVCM, mean of independent replicates ([2]; compound 1 µM + DAU 1.2 µM) | Suppl.Fig.3 DAU-induced cytotoxicity (LDH release) in NVCM, mean of independent replicates ([2]; compound 10 µM + DAU 1.2 µM) | Suppl.Fig.3 DAU-induced cytotoxicity (LDH release) in NVCM, mean of independent replicates ([2]; compound 30 µM + DAU 1.2 µM) | Suppl.Fig.3 DAU-induced cytotoxicity (LDH release) in NVCM, mean of independent replicates ([2]; compound 100 µM + DAU 1.2 µM) | LDH release (inherent toxicity), mean of independent replicates ([1]; compound alone 3 µM) | Suppl.Fig.3 DAU-induced cytotoxicity (LDH release) in NVCM, mean of independent replicates ([2]; compound 3 µM + DAU 1.2 µM) | LDH release (inherent toxicity), mean of independent replicates ([1]; compound alone 0.01 µM) | Suppl.Fig.3 DAU-induced cytotoxicity (LDH release) in NVCM, mean of independent replicates ([2]; compound 0.01 µM + DAU 1.2 µM)
1 | CCCCc1cc(=O)oc2c(C(=O)N3CCCc4ccccc43)c(OC)cc(OC)c12 [1d] | 30 | 14.3468 | 13.6854 | 20.4098 | 50.8474 | 76.157 | 1 | 44.1431 | 30.0603 | 34.1459 | 74.3781 | 88.2455 | – | – | – | –
2 | Cc1cc(=O)oc2c(C(=O)N3CCCc4ccccc43)c(O)ccc12 [2a] | – | – | – | 13.7502 | 15.9605 | 17.1189 | – | – | – | 37.2223 | 39.137 | 42.8636 | – | – | – | –
3 | CCc1cc(=O)oc2c(C(=O)N3CCCc4ccccc43)c(O)ccc12 [2b] | – | – | – | 17.3516 | 18.0926 | 18.5764 | – | – | – | 31.7392 | 34.9042 | 31.3386 | – | – | – | –
4 | COc1ccc2c(C)cc(=O)oc2c1C(=O)N1CCCc2ccccc21 [3a] | > 10 | – | 18.1168 | 15.937 | – | – | – | – | 38.7802 | 36.7927 | – | – | 15.6047 | 37.7536 | – | –
5 | CCc1cc(=O)oc2c(C(=O)N3CCCc4ccccc43)c(OC)ccc12 [3b] | > 10 | – | 16.0681 | 15.3649 | – | – | – | – | 33.4469 | 31.9857 | – | – | 15.619 | 35.1015 | – | –
6 | CCCCc1cc(=O)oc2c(C(=O)N3CCCc4ccccc43)c(OC)ccc12 [3d] | > 30 | 14.1948 | 16.3261 | 19.5649 | 19.0356 | – | 1 | 40.2805 | 35.9225 | 25.0218 | 30.6397 | – | – | – | 14.5175 | 50.7769
7 | CCCOc1ccc2c(C)cc(=O)oc2c1C(=O)N1CCCc2ccccc21 [4a] | > 30 | 13.7469 | 13.1211 | 16.3565 | 19.993 | – | 10 | 45.8753 | 42.086 | 32.6284 | 30.3987 | – | – | – | – | –
8 | CCCOc1ccc2c(CC)cc(=O)oc2c1C(=O)N1CCCc2ccccc21 [4b] | – | 14.2064 | 13.8348 | 17.7301 | 17.7791 | 17.3487 | 0.1 | 43.0735 | 30.3899 | 27.961 | 25.8835 | 28.6308 | – | – | 14.7625 | 47.614
9 | CCCCc1cc(=O)oc2c(C(=O)N3CCCc4ccccc43)c(OCCC)ccc12 [4d] | 10 | 15.2686 | 16.9179 | 31.7424 | 60.5761 | 70.9323 | 1 | 31.1377 | 25.022 | 40.2951 | 73.3675 | 78.9691 | – | – | 17.8445 | 36.4234
10 | Cc1cc(=O)oc2c(C(=O)N3CCCc4ccccc43)c(OCCO)ccc12 [5a] | – | – | 12.9508 | 15.8869 | 14.1719 | 15.685 | 30 | – | 47.2456 | 46.8582 | 41.4003 | 38.7405 | – | – | – | –
11 | CCCCc1cc(=O)oc2c(C(=O)N3CCCc4ccccc43)c(OCCO)ccc12 [5d] | – | 15.5556 | 15.5462 | 19.8205 | 25.0146 | 27.0966 | – | 41.2776 | 35.4099 | 33.3492 | 35.9089 | 42.7736 | – | – | 16.4804 | 44.6742

Source: PMC12116762, “Topobexin targets the Topoisomerase II ATPase domain for beta isoform-selective inhibition and anthracycline cardioprotection” (Nature Communications, 2025)
